In patent US9562012B2, “PPAR-sparing compounds for the treatment of metabolic diseases” (Metabolic Solutions Development Company, LLC, priority 2013, dated 2017):
Structures can show the parent of a compound that is named as a salt.

Experiments:
[1] = target: human PPARγ ligand binding domain (LBD) (Homo sapiens (Human), UniProt P37231); assay: TR-FRET PPARγ competitive binding assay (Invitrogen LanthaScreen)
Experimental: The assays are conducted by first evaluation of the direct interactions of the molecules with the ligand binding domain of PPARγ. […] PPARγ binding is measured by a TR-FRET competitive binding assay using Invitrogen LanthaScreen™ TR-FRET PPARγ Competitive Binding Assay (Invitrogen #4894). This assay uses a terbium-labeled anti-GST antibody to label the GST tagged human PPARγ ligand binding domain (LBD). A fluorescent small molecule pan-PPAR ligand tracer binds to the LBD causing energy transfer from the antibody to the ligand resulting in a high TR-FRET ratio. […] The TR-FRET ratio is determined by reading the fluorescence emission at 490 and 520 nm using a Synergy2 plate reader (BioTek). The ability of compounds of the present invention to bind to PPARγ may also be measured using a commercial binding assay (Invitrogen Corporation, Carlsbad, Calif.) that measures the test compounds ability to bind with PPAR-LBD/Fluormone PPAR Green complex. These assays are performed on three occasions with each assay using duplicate wells at each concentration of tested compound. The data are mean and SEM of the values obtained from the three experiments. […] Compounds were added at the concentrations shown, which ranged from 0.1-100 micromolar.

diabetic KKAy mice = assay: Glucose, insulin and triglyceride in diabetic KKAy mice; format: in vivo; conditions: orally dosed 93 mg/kg for 4 days, T/C normalized to vehicle activity
Experimental: The insulin sensitizing and antidiabetic pharmacology are measured in the KKA^Y mice as previously reported [Hofmann, C., Lomez, K., and Colca, J. R. (1991). Glucose transport deficiency corrected by treatment with the oral anti-hyperglycemic agent Pioglitazone. Endocrinology, 129:1915-1925.]. Compounds are formulated in 1% sodium carboxy methylcellulose, and 0.01% tween 20 and dosed daily by oral gavage. […] Compounds were formulated by suspension and orally dosed to KKA^Y mice at 93 mg/kg for 4 days. The compounds were first dissolved in DMSO and then placed into aqueous suspension containing 7-10% DMSO, 1% sodium methylcarboxycellulose, and 0.01% Tween 20. On the fifth day, the mice were fasted and blood samples were obtained approximately 18 hours after the last dose. The parameters were measured by standard assay methods. Data are mean and SEM N=6-12 mice.

Chain of human PPARγ ligand binding domain (LBD) (P37231 238-503): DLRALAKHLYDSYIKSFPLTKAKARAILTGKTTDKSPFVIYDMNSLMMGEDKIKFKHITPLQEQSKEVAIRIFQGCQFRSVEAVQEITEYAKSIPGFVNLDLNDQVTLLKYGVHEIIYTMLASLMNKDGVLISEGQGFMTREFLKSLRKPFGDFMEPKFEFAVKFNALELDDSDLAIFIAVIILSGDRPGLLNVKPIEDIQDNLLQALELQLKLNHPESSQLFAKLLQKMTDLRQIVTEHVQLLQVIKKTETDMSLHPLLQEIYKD

How did the IC50 [1] turn out when `CCO[C@@H](Cc1ccc(OCc2ccc(S(C)(=O)=O)cc2)cc1)C(=O)NOC` [Compound 9, (2S)-2-ethoxy-N-methoxy-3-(4-{[4-(methylsulfonyl)benzyl]oxy}phenyl) propanamide] was run?
The IC50 was > 250 µM.

With `CCO[C@@H](Cc1ccc(OCc2cc(OC)ccn2)cc1)C(=O)NO` [Compound 3, (2S)-2-ethoxy-N-hydroxy-3-{4-[(4-methoxypyridin-2-yl)methoxy]phenyl}propanamide hydrochloride] as the compound, how does the IC50 [1] read?
Its IC50 is > 250 µM.

Which IC50 [1] does the source give for `CCO[C@@H](Cc1ccc(OCc2cc(OC)ccn2)cc1)C(=O)N(C)OC` [Compound 4, (2S)-2-ethoxy-N-methoxy-3-{4-[(4-methoxypyridin-2-yl)methoxy]phenyl}-N-methylpropanamide] here?
The IC50 was 27.7 µM.

For `CCO[C@@H](Cc1ccc(OCc2cc(OC)ccn2)cc1)C(=O)NOC.Cl` [Compound 5, (2S)-2-ethoxy-N-methoxy-3-{4-[(4-methoxypyridin-2-yl)methoxy]phenyl}propanamide hydrochloride], which IC50 [1] is on record?
Its IC50 is > 250 µM.

What about the “Gluclose (mean T/C)” value (diabetic KKAy mice) of the same compound?
The value was 0.97.

`CCO[C@@H](Cc1ccc(OC[C@H](O)c2cccc(OC)c2)cc1)C(=O)NOC` [Compound 15, (2S)-2-ethoxy-3-{4-[(2R)-2-hydroxy-2-(3-methoxyphenyl)ethoxy]phenyl}-N-methoxypropanamide] was tested. Which IC50 [1] did it give?
The IC50 was > 200 µM.

`CCO[C@@H](Cc1ccc(OCCc2ccc(OS(C)(=O)=O)cc2)cc1)C(=O)NOC` [Compound 10] was tested. Which IC50 [1] did it give?
The IC50 was 7.9 µM.

`CCO[C@H](Cc1ccc(OC[C@@H](O)c2cccc(OC)c2)cc1)C(=O)NO` [Compound 2, (2R)-2-ethoxy-N-hydroxy-3-{4-[(2S)-2-hydroxy-2-(3-methoxyphenyl)ethoxy]phenyl}propanamide] was tested. Which IC50 [1] did it give?
The IC50 was > 100 µM.

With `CCO[C@@H](Cc1ccc(OCC(=O)c2cccc(OC)c2)cc1)C(=O)N(C)OC` [Compound 14, (2S)-2-ethoxy-N-methoxy-3-{4-[2-(3-methoxyphenyl)-2-oxoethoxy]phenyl}-N-methylpropanamide] as the compound, how does the IC50 [1] read?
Its IC50 is > 250 µM.

And the “Gluclose (mean T/C)” value (diabetic KKAy mice)?
The value was 0.76.

`CCO[C@@H](Cc1ccc(OCc2cccc(I)c2)cc1)C(=O)NO` [Compound 7, (2S)-2-ethoxy-N-hydroxy-3-{4-[(3-iodobenzyl)oxy]phenyl}propanamide] was tested. Which IC50 [1] did it give?
Its IC50 is 11.8 µM.

With `CCO[C@@H](Cc1ccc(OC[C@@H](O)c2cccc(OC)c2)cc1)C(=O)NOC` [Compound 12, (2S)-2-ethoxy-3-{4-[(2S)-2-hydroxy-2-(3-methoxyphenyl)ethoxy]phenyl}-N-methoxypropanamide] as the compound, how does the IC50 [1] read?
Its IC50 is 164 µM.

What about the “Gluclose (mean T/C)” value (diabetic KKAy mice) of the same compound?
The value was 0.49.

For `CCO[C@@H](Cc1ccc(OCCc2ccc(OS(C)(=O)=O)cc2)cc1)C(=O)N(C)OC` [Compound 21], which IC50 [1] is on record?
The IC50 was 3.7 µM.

`CCO[C@@H](Cc1ccc(OC[C@H](O)c2cccc(OC)c2)cc1)C(=O)N(C)OC` [Compound 16, (2S)-2-Ethoxy-3-{4-[(2R)-2-hydroxy-2-(3-methoxyphenyl)ethoxy]phenyl}-N-methoxy-N-methylpropanamide] was tested. Which IC50 [1] did it give?
The IC50 was 191 µM.

What does the source list for `CCO[C@@H](Cc1ccc(OCC(=O)c2cccc(OC)c2)cc1)C(=O)NOC` [Compound 13, (2S)-2-ethoxy-N-methoxy-3-{4-[2-(3-methoxyphenyl)-2-oxoethoxy]phenyl}Propanamide]?
IC50 [1]: 61.4 µM; Gluclose (mean T/C) (diabetic KKAy mice): 0.59

`CCO[C@H](Cc1ccc(OC[C@@H](O)c2cccc(OC)c2)cc1)C(=O)NOC` [Compound 18, (2R)-2-ethoxy-3-{4-[(2S)-2-hydroxy-2-(3-methoxyphenyl)ethoxy]phenyl}-N-methoxypropanamide] was tested. Which IC50 [1] did it give?
The IC50 was > 250 µM.

`CCO[C@H](Cc1ccc(OC[C@H](O)c2cccc(OC)c2)cc1)C(=O)NOC` [Compound 19, (2R)-2-ethoxy-3-{4-[(2R)-2-hydroxy-2-(3-methoxyphenyl)ethoxy]phenyl}-N-methoxypropanamide] was tested. Which IC50 [1] did it give?
Its IC50 is > 250 µM.

Which IC50 [1] does the source give for `CCO[C@H](Cc1ccc(OCC(=O)c2cccc(OC)c2)cc1)C(=O)N(C)OC` [Compound 11, (2R)-2-ethoxy-N-methoxy-3-{4-[2-(3-methoxyphenyl)-2-oxoethoxy]phenyl}-N-methylpropanamide] here?
The IC50 was 30.5 µM.

`CCO[C@H](Cc1ccc(OCC(=O)c2cccc(OC)c2)cc1)C(=O)NOC` [Compound 8, (2R)-2-ethoxy-N-methoxy-3-{4-[2-(3-methoxyphenyl)-2-oxoethoxy]phenyl}propanamide] was tested. Which IC50 [1] did it give?
The IC50 was 98.5 µM.

`CCO[C@@H](Cc1ccc(OC[C@@H](O)c2cccc(OC)c2)cc1)C(=O)N(C)OC` [Compound 17] was tested. Which IC50 [1] did it give?
Its IC50 is 27.7 µM.

Which IC50 [1] does the source give for `CCO[C@@H](Cc1ccc(OCc2cc(OC)ccn2)cc1)C(=O)N(C)O.Cl` [Compound 6, (2S)-2-ethoxy-N-hydroxy-3-{4-[(4-methoxypyridin-2-yl)methoxy]phenyl}-N-methylpropanamide hydrochloride] here?
The IC50 was > 195 µM.

What about the “Gluclose (mean T/C)” value (diabetic KKAy mice) of the same compound?
The value was 0.55.

With `CCO[C@@H](Cc1ccc(OCc2ccccn2)cc1)C(=O)NO` [Compound 1, (2S)-2-ethoxy-N-hydroxy-3-[4-(pyridin-2-ylmethoxy)phenyl]propanamide hydrogen chloride] as the compound, how does the IC50 [1] read?
The IC50 was 58.9 µM.

With `CCO[C@@H](Cc1ccc(OCCc2ccc(OS(C)(=O)=O)cc2)cc1)C(=O)N(C)O` [Compound 20] as the compound, how does the IC50 [1] read?
The IC50 was 10.9 µM.
